Measured values taken from ChEMBL document CHEMBL5030557, “Tandem Repeat of a Short Human Chemerin-Derived Peptide and Its Nontoxic d-Lysine-Containing Enantiomer Display Broad-Spectrum Antimicrobial and Antitubercular Activities” (J Med Chem, 2021).
In brackets after ≈: the same amount, converted by molar mass. Activity calls are given as the source filed them. The calls are words filed in the database; no cut-off is given here.

What was measured:
Escherichia coli [1] = experiment: Antimicrobial activity against Escherichia coli ATCC 25922 assessed as inhibition of bacterial growth by broth dilution method; assay type: functional
Bacillus subtilis = experiment: Antimicrobial activity against Bacillus subtilis ATCC 6633 assessed as inhibition of bacterial growth by broth dilution method; assay type: functional
Klebsiella pneumoniae = experiment: Antimicrobial activity against Klebsiella pneumoniae ATCC 27736 assessed as inhibition of bacterial growth by broth dilution method; assay type: functional
Pseudomonas aeruginosa [2] = experiment: Antimicrobial activity against Pseudomonas aeruginosa ATCC BAA-427 assessed as inhibition of bacterial growth by broth dilution method; assay type: functional
[3] = Stability of the compound in human serum assessed as intact compound remaining at 2 mg/ml measured after 60 mins by […] analysis; assay type: ADME, cell-free; settings: read-out: Stability
[4] = Acute toxicity in BALB/c mouse assessed as survival at 20 mg/kg administered intravenously measured after 7 days; assay type: organism-based; settings: in vivo, iv, 168 h, time 7 day
THP-1 = experiment: Cytotoxicity against human monocyte THP-1 cell line assessed as cell viability measured for 24 hrs using ELISA plate reader; assay type: cell-based; settings: thp-1, 24 h
[5] = Retention time of the compound analysed by RP-HPLC analysis; assay type: physicochemical
[6] = Hemolytic activity in human RBC at 150 uM measured after 40 min by hemolysis assay relative to control; assay type: ADME, tissue-based, Erythrocyte; settings: red blood cells (RBC), read-out: Activity
Staphylococcus aureus [7] = experiment: Antimicrobial activity against Staphylococcus aureus ATCC 25923 assessed as inhibition of bacterial growth by broth dilution method; assay type: functional
Staphylococcus aureus [8] = experiment: Antimicrobial activity against methicilin- resistant Staphylococcus aureus ATCC 33591 assessed as inhibition of bacterial growth by broth dilution method; assay type: functional
Staphylococcus aureus [9] = experiment: Antimicrobial activity against multidrug-resistant Staphylococcus aureus ATCC BAA-44 assessed as inhibition of bacterial growth by broth dilution method; assay type: functional
[10] = Hemolytic activity in human RBC measured after 40 mins; assay type: ADME, tissue-based, Erythrocyte; settings: red blood cells (RBC)
Escherichia coli [11] = experiment: Antibacterial activity against Escherichia coli ATCC 25922 in presence of 10 percent fresh human serum measured after 1 hr; assay type: functional
Escherichia coli [12] = experiment: Antibacterial activity against Escherichia coli ATCC 25922 in presence of 4.5 mM KCl measured after 1 hr; assay type: functional
Escherichia coli [13] = experiment: Antibacterial activity against Escherichia coli ATCC 25922 in presence of 150 mM NaCl measured after 1 hr; assay type: functional
Escherichia coli [14] = experiment: Antibacterial activity against Escherichia coli ATCC 25922 in presence of temperature ranging from 4 to 90 degC measured after 1 hr; assay type: functional
Cell membrane [15] = experiment: Induction of membrane damage in Escherichia coli assessed as disruption of membrane integrity at 10 uM incubated for 30 min by propidium iodide staining based assay
[16] = (§1) Disruption of membrane integrity in human RBC cells assessed as membrane damage at 150 uM incubated for 15 min by Alexa fluor-annexin V staining based assay (reference value: 0%); assay type: functional, Red blood cell; settings: 0.25 h
Cell membrane [17] = experiment: Inner membrane permeability of the compound in Escherichia coli ATCC 25922 by ONPG assay; assay type: ADME, subcellular
Cell membrane [18] = experiment: Disruption of plasma membrane in Staphylococcus aureus ATCC 25923 at 10 uM by SYTOX-green uptake assay; assay type: cell membranes; settings: TDE = time-dependent effect
[19] = Permeability of the compound in PC/PG lipid vesicles by spectrofluorometry; assay type: ADME
Lipid bilayer = experiment: Induction of membrane depolarization in mammalian mimetic PC/Chol vesicles assessed as membrane permeabilization
Pseudomonas aeruginosa [20] = experiment: Antibacterial activity against Pseudomonas aeruginosa BAA 427 assessed as resistance development by measuring fold change in MIC after 30 passages with serially diluted peptides; assay type: functional
Escherichia coli [21] = experiment: Bactericidal activity against Escherichia coli ATCC 25922 assessed as bacterial killing at 5 times MIC measured after 60 min; assay type: functional, organism-based
Pseudomonas aeruginosa [22] = experiment: Antibacterial activity against Pseudomonas aeruginosa infected in Balb/c mouse stomach assessed as animal survival at 5 mg/kg, ip after 7 days; assay type: functional; settings: 168 h, time 7 day
Pseudomonas aeruginosa [23] = experiment: Antibacterial activity against Pseudomonas aeruginosa infected in Balb/c mouse stomach assessed as animal survival at 10 mg/kg, ip after 7 days; assay type: functional; settings: 168 h, time 7 day
Pseudomonas aeruginosa [24] = experiment: Anti-infective activity in Pseudomonas aeruginosa infected BALB/c mouse spleen assessed as reduction in bacterial growth at 10 mg/kg, ip after 12 hrs; assay type: functional, organism-based
Pseudomonas aeruginosa [25] = experiment: Anti-infective activity in Pseudomonas aeruginosa infected BALB/c mouse spleen assessed as reduction in bacterial growth at 10 mg/kg, ip after 18 hrs; assay type: functional, organism-based
Pseudomonas aeruginosa [26] = experiment: Anti-infective activity in Pseudomonas aeruginosa infected BALB/c mouse liver assessed as reduction in bacterial growth at 10 mg/kg, ip after 12 hrs; assay type: functional, organism-based
Pseudomonas aeruginosa [27] = experiment: Anti-infective activity in Pseudomonas aeruginosa infected BALB/c mouse liver assessed as reduction in bacterial growth at 10 mg/kg, ip after 18 hrs; assay type: functional, organism-based
Pseudomonas aeruginosa [28] = experiment: Anti-infective activity in Pseudomonas aeruginosa infected BALB/c mouse kidney assessed as reduction in bacterial growth at 10 mg/kg, ip after 12 hrs; assay type: functional, organism-based
Pseudomonas aeruginosa [29] = experiment: Anti-infective activity in Pseudomonas aeruginosa infected BALB/c mouse kidney assessed as reduction in bacterial growth at 10 mg/kg, ip after 18 hrs; assay type: functional, organism-based
[30] = tested on: Mycolicibacterium smegmatis; experiment: Anti-mycobacterial activity against Mycobacterium smegmatis assessed as growth inhibition at 16.13 uM relative to control; assay type: functional
[31] = tested on: Mycobacterium tuberculosis; experiment: Anti-mycobacterial activity against Mycobacterium tuberculosis H37Ra assessed as growth inhibition at 16.13 uM relative to control; assay type: functional
[32] = tested on: Mycolicibacterium smegmatis; experiment: Anti-mycobacterial activity against Mycobacterium smegmatis assessed as reduction in CFU at 3 times MIC after 12 hrs; assay type: functional, organism-based
[33] = tested on: Mycolicibacterium smegmatis; experiment: Anti-mycobacterial activity against Mycobacterium smegmatis assessed as reduction in CFU at 3 times MIC after 24 hrs; assay type: functional, organism-based
[34] = tested on: Mycolicibacterium smegmatis; experiment: Anti-mycobacterial activity against Mycobacterium smegmatis infected in human THP-1 cells assessed as reduction in CFU at 24.19 uM after 24 hrs; assay type: functional
[35] = tested on: Mycolicibacterium smegmatis; experiment: Anti-mycobacterial activity against Mycobacterium smegmatis infected in human THP-1 cells assessed as reduction in CFU at 40.13 uM after 24 hrs; assay type: functional
[36] = Acute toxicity in BALB/c mouse assessed as change in body weight at 20 mg/kg administered intravenously measured after 7 days; assay type: organism-based; settings: in vivo, iv, 168 h, time 7 day
Pseudomonas aeruginosa [37] = experiment: Antibacterial activity against Pseudomonas aeruginosa infected in Balb/c mouse stomach assessed as animal survival at 100 mg/kg, ip after 7 days; assay type: functional; settings: 168 h, time 7 day
[38] = Acute toxicity in BALB/c mouse assessed as survival at 30 mg/kg administered intravenously measured after 7 days; assay type: organism-based; settings: in vivo, iv, 168 h, time 7 day
Red blood cell = experiment: as §1; assay type: functional

Row | SMILES | MIC (Escherichia coli [1]) | MIC (Bacillus subtilis) | MIC (Klebsiella pneumoniae) | MIC (Pseudomonas aeruginosa [2]) | remaining at 1 h, 2 mg/ml [3] | Activity [4] | Retention_time [5] | MIC (Staphylococcus aureus [7]) | MIC (Staphylococcus aureus [8]) | MIC (Staphylococcus aureus [9]) | HC50 at 40 min [10] | MIC (Escherichia coli [11]) | MIC (Escherichia coli [12]) | MIC (Escherichia coli [13]) | MIC (Escherichia coli [14]) | Activity (Cell membrane [15]) | Activity [16] | Activity (Cell membrane [18]) | Activity [19] | Activity (Lipid bilayer) | further results
1 | CC(C)C[C@H](NC(=O)[C@H](CCCNC(=N)N)NC(=O)CNC(=O)[C@H](CC(C)C)NC(=O)[C@@H](NC(=O)[C@@H](CCCCN)NC(=O)[C@@H](NC(=O)[C@H](CC(C)C)NC(=O)[C@H](CCCNC(=N)N)NC(=O)CNC(=O)[C@H](CC(C)C)NC(=O)[C@@H](NC(=O)[C@@H](N)CCCCN)C(C)C)C(C)C)C(C)C)C(=O)N[C@H](C(N)=O)C(C)C | 1 µM (≈ 1.55 µg/mL) | 2 µM (≈ 3.1 µg/mL) | 4 µM (≈ 6.2 µg/mL) | 4 µM (≈ 6.2 µg/mL) | 88% | Toxic | 14.6 min | 1 µM (≈ 1.55 µg/mL) | 2 µM (≈ 3.1 µg/mL) | 2 µM (≈ 3.1 µg/mL) | > 2000 µM | 2 µM | 8 µM | 4 µM | 2 µM | Active | 2.1% | Tde | Active | inactive | Activity (THP-1): Non-Toxic; hemolysis at 40 min, 150 µM [6]: 0%; Activity (Cell membrane [17]): Active; fold change (FC) (Pseudomonas aeruginosa [20]): 2; Activity (Escherichia coli [21]): Active; survival at 5 mg/kg (Pseudomonas aeruginosa [22]): 40%; survival at 10 mg/kg (Pseudomonas aeruginosa [23]): 80%; Activity (Pseudomonas aeruginosa [24]): Active; Activity (Pseudomonas aeruginosa [25]): Active; Activity (Pseudomonas aeruginosa [26]): Active; Activity (Pseudomonas aeruginosa [27]): Active; Activity (Pseudomonas aeruginosa [28]): Active; Activity (Pseudomonas aeruginosa [29]): Active; inhibition at 16.13 µM [30]: 95%; inhibition at 16.13 µM [31]: 95%; Activity [32]: Active; Activity [33]: Active; inhibition at 24.19 µM [34]: 40%; inhibition at 40.13 µM [35]: 80%; Activity [36]: Non-Toxic
2 | C[C@H]1COc2c(N3CCN(C)CC3)c(F)cc3c(=O)c(C(=O)O)cn1c23 [LEVOFLOXACIN] | – | – | – | – | – | – | – | – | – | – | – | – | – | – | – | – | – | – | – | – | survival at 100 mg/kg (Pseudomonas aeruginosa [37]): 100%
3 | CC(C)C[C@H](NC(=O)[C@H](CCCNC(=N)N)NC(=O)CNC(=O)[C@H](CC(C)C)NC(=O)[C@@H](NC(=O)[C@H](CCCCN)NC(=O)[C@@H](NC(=O)[C@H](CC(C)C)NC(=O)[C@H](CCCNC(=N)N)NC(=O)CNC(=O)[C@H](CC(C)C)NC(=O)[C@@H](NC(=O)[C@@H](N)CCCCN)C(C)C)C(C)C)C(C)C)C(=O)N[C@H](C(N)=O)C(C)C | 1 µM (≈ 1.55 µg/mL) | 2 µM (≈ 3.1 µg/mL) | 4 µM (≈ 6.2 µg/mL) | 4 µM (≈ 6.2 µg/mL) | 51% | Non-Toxic | 16 min | 2 µM (≈ 3.1 µg/mL) | 1 µM (≈ 1.55 µg/mL) | 2 µM (≈ 3.1 µg/mL) | 429 µM | 2 µM | 2 µM | 2 µM | 2 µM | Active | 96.5% | Tde | Active | inactive | Activity [38]: Non-Toxic; Activity (Red blood cell): Active; fold change (FC) (Pseudomonas aeruginosa [20]): 8; Activity (Escherichia coli [21]): Active; inhibition at 16.13 µM [30]: 80%; inhibition at 16.13 µM [31]: 80%; inhibition at 24.19 µM [34]: 20%; inhibition at 40.13 µM [35]: 40%
